Key:
Format in all cases: biochemical
Conditions in all cases: 10 µM compound; mean ± SD
HSD17B3 = molecular target: T1, HSD17B3 (Homo sapiens, UniProt P37058); experiment: HSD17B3 inhibition assay (∆4-androstene-3,17-dione to testosterone, HEK293 stably expressing HSD17B3)
T1 construct: expressed in transfected cells
T1 sequence (P37058 1-310): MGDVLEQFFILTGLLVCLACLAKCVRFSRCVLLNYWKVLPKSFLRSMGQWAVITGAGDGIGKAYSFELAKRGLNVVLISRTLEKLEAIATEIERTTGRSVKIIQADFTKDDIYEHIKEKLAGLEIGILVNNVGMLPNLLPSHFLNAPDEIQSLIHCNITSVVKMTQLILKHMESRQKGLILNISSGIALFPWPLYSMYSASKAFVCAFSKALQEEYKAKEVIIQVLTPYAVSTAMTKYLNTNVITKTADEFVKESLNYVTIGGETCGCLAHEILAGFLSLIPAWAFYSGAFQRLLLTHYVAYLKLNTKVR
Excerpt: (§1) For enzymatic assays and inhibitor testing, all enzymes were cloned into bacterial or mammalian expression vectors. AKR1C3 and the human hydroxysteroid dehydrogenases HSD17B1, HSD17B2, HSD17B4 (SDR domain), HSD17B7, and HSD17B10 were cloned into a pGEX vector as described in [71, 72]. The coding sequences for AKR1C1, AKR1C2, and AKR1C4 were cloned by Gateway technology into the pcDNA3-N-MycDest vector according to the manufacturer’s instructions (Life Technologies, Carlsbad, CA, USA). The p11 plasmid coding for HSD17B14 (S205 variant) was a gift from Udo Opperman SGC Oxford, UK. For assays with HSD17B3, HEK293 cells stably expressing HSD17B3 were used. Enzymes were expressed in E. coli BL21 DE3 or E. coli BL21 DE3 Codon Plus RP (Stratagene, San Diego, CA, USA) or in HEK293 cells as described in [71, 72, 73]. Bacterial and cell pellets were stored at −20 °C and −80 °C, respectively, until use.
(§2) Inhibition assays were carried out as described in [71, 74]. […] For a detailed assay setup, see Supplementary Table S6. The incubation at 37 °C was stopped with 0.21 M ascorbic acid in methanol:acetic acid 99:1 (v:v) after the time needed to convert approximately 30% of the substrate in a control assay with 1% DMSO, without inhibitor candidate. Substrates and products were extracted from the reaction mixture by solid-phase extraction using C18 cartridges (Phenomenex, Aschaffenburg, Germany) and separated by RP–HPLC in a Beckman–Coulter HPLC Gold system, using the Luna 5 µm C18(2), 125 × 4.0 mm column (Phenomenex). The mobile phases used were H2O:ACN (57:43 (v:v); for assays of estrone (E1) to oestradiol (E2), E2 to E1, and ∆4-androstene-3,17-dione to testosterone conversion), H2O:ACN (49:51 (v:v); for assays of progesterone to 20α-hydroxyprogesterone conversion), and H2O:MeOH (35:65 (v:v) for assays of dihydrotestosterone (DHT) to 3α-androstanediol conversion) at a flow rate of 1 mL/min. Radioactivity was detected by online scintillation counting by using a radioactivity monitor (LB506D, Berthold Technologies, Bad Wildbad, Germany). Conversion of substrates to products was determined by integration of the peak area of the substrate and product peaks in percent. For calculation of inhibition, the conversion of control assay (assay without inhibitor) was set to 0% inhibition. All assays were run in triplicates, and mean values ± SD are reported.
(§3) Table S6: Activity assay setup […]
(§4) E1: estrone; E2: 17β-estradiol, A: Δ4-androstene-3,17-dione; T: testosterone, P: progesterone, 20αOHP: 20α-hydroxyprogesterone, DHT: dihydrotestosterone, 3α-Adiol: 3α-androstanediol, NaPi: 100 mM Na-phosphate buffer; PI: C0mplete protease inhibitor (Roche);. E.coli - Expression in E.coli BL21 DE3 Codon Plus RP except E.coli BL21 DE3 […]
(§5) application to antiparasitic and natural product synthesis. Eur J Org Chem […]
(§6) Synthesis of Xanthohumol analogues and discovery of potent thioredoxin reductase inhibitor as potential anticancer agent. J Med Chem 2015, 58,

HSD17B4 = molecular target: T2, HSD17B4 (Homo sapiens, UniProt P51659); experiment: HSD17B4 (SDR domain) inhibition assay (oestradiol to estrone)
T2 construct: pGEX-HSD17B4 (SDR domain) in; GST (own knowledge: pGEX vectors encode N-terminal GST); made in house; host or cells: E. coli BL21 DE3 Codon Plus RP
T2 sequence (P51659 1-305 limits assumed): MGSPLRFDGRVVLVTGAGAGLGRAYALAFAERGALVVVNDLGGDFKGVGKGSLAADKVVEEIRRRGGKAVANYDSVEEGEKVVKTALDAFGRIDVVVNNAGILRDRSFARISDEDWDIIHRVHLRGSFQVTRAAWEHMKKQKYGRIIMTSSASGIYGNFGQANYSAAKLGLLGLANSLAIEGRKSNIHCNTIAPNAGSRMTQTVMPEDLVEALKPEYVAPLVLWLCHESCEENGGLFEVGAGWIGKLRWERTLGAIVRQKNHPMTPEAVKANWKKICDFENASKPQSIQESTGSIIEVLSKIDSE
Excerpt: as §1, §2, §3
pGEX-HSD17B4 (SDR domain) in E2 à E1 estradiol-[6,7-3H], 40 NAD 750 µM NaPi pH7.7 […]
as §4, §5, §6

HSD17B7 = molecular target: T3, HSD17B7 (Homo sapiens, UniProt P56937); experiment: HSD17B7 inhibition assay (estrone to oestradiol)
T3 construct: GST (own knowledge: pGEX vectors encode N-terminal GST); made in house; host or cells: E. coli BL21 DE3 Codon Plus RP
T3 sequence (P56937 1-341): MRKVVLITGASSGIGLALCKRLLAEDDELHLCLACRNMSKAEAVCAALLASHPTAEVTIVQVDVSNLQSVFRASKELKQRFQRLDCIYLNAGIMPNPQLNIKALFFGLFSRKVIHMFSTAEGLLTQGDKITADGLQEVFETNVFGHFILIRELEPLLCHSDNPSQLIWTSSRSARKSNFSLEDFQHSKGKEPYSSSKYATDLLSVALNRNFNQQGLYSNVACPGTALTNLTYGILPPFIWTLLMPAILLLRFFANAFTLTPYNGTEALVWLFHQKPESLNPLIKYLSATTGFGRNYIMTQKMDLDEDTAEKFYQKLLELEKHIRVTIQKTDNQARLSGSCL
Excerpt: as §1, §2, §3, §4, §5, §6

HSD17B10 = molecular target: T4, HSD17B10 (Homo sapiens, UniProt Q99714); experiment: HSD17B10 inhibition assay (oestradiol to estrone)
T4 construct: GST (own knowledge: pGEX vectors encode N-terminal GST); made in house; host or cells: E. coli BL21 DE3 Codon Plus RP
T4 sequence (Q99714 1-261): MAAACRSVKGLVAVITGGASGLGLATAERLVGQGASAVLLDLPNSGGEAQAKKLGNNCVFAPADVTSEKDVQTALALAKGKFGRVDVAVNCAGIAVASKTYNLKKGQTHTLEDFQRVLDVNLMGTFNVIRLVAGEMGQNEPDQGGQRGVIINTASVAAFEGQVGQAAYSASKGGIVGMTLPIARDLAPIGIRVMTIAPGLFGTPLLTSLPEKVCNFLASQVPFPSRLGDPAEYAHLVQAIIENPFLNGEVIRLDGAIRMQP
Excerpt: as §1, §2, §3, §4, §5, §6

| Structure (SMILES) | Inhibition of HSD17B3 at 10 µM in % (HSD17B3) [%] | Inhibition of HSD17B4 at 10 µM in % (HSD17B4) [%] | Inhibition of HSD17B7 at 10 µM in % (HSD17B7) [%] | Inhibition of HSD17B10 at 10 µM in % (HSD17B10) [%] | inhibition at 10 µM (HSD17B3) [%] | inhibition at 10 µM (HSD17B4) [%] | inhibition at 10 µM (HSD17B7) [%] | inhibition at 10 µM (HSD17B10) [%] |
| --- | --- | --- | --- | --- | --- | --- | --- | --- |
| COc1ccc(/C=C/C(=O)c2c(O)cc(O)cc2OC)cc1 [Compound 18] | 24.8 ± 4.8 | 9.9 ± 6.1 | 6.5 ± 6.7 | -0.5 ± 6.5 | – | – | – | – |
| COc1ccc(/C=C/C(=O)c2c(O)cc(O)cc2O)cc1 [Compound 19] | 41.8 ± 3.3 | 2.0 ± 2.9 | 4.6 ± 4.4 | 2.2 ± 2.6 | – | – | – | – |
| Cc1cccc(/C=C/C(=O)c2c(O)cc(O)cc2O)c1 [Compound 20] | 55.9 ± 4.1 | 8.6 ± 1.1 | 3.8 ± 3.5 | -2.5 ± 0.7 | – | – | – | – |
| Cc1ccc(/C=C/C(=O)c2c(O)cc(O)cc2O)cc1 [Compound 21] | 52.7 ± 6.7 | 3.0 ± 6.3 | 6.8 ± 4.7 | 8.0 ± 6.5 | – | – | – | – |
| O=C(/C=C/c1ccc(Cl)cc1Cl)c1c(O)cc(O)cc1O [Compound 23, 2,4-dichloro-2′,4′,6′-trihydroxychalcone] | – | – | – | – | 68.6 | 19.6 ± 1 | 9.9 ± 4.7 | 5.2 ± 3.8 |
| COc1cc(O)cc(O)c1C(=O)/C=C/c1ccc(Cl)cc1Cl [Compound 25] | 20.9 ± 8.0 | -6.0 ± 7.5 | 37.7 ± 11.4 | -0.5 ± 7.3 | – | – | – | – |
